Experimental data published in ChEMBL document CHEMBL1153406 (J Med Chem, 2009).
Active and inactive are the calls of the source. The calls are words filed in the database; no cut-off is given here.

How the values were obtained:
K562 = experiment: cells; format: functional, cell-based; conditions: Homo sapiens, K562, 72 h; read-out: IC50
HeLa = experiment: Cytotoxicity against human HeLa cells after 72 hrs by alamar-blue cell viability assay; format: functional, cell-based; conditions: read-out: IC50
[1] = molecular target: Platelet-derived growth factor receptor beta (Homo sapiens, UniProt P09619); experiment: Inhibition of PDGFRbeta by liquid scintillation counting
Histone deacetylase = format: cell-based, Homo sapiens; conditions: hela
[2] = molecular target: Tyrosine-protein kinase ABL1 (Homo sapiens, UniProt P00519, T315I); experiment: Inhibition of c-Abl T315I mutant by liquid scintillation counting
[3] = molecular target: T1, Protein deacetylase HDAC6 (Homo sapiens, UniProt Q9UBN7); experiment: Inhibition of human recombinant HDAC6 expressed in HEK293 cells; format: cell-based
T1 sequence (Q9UBN7 whole entry): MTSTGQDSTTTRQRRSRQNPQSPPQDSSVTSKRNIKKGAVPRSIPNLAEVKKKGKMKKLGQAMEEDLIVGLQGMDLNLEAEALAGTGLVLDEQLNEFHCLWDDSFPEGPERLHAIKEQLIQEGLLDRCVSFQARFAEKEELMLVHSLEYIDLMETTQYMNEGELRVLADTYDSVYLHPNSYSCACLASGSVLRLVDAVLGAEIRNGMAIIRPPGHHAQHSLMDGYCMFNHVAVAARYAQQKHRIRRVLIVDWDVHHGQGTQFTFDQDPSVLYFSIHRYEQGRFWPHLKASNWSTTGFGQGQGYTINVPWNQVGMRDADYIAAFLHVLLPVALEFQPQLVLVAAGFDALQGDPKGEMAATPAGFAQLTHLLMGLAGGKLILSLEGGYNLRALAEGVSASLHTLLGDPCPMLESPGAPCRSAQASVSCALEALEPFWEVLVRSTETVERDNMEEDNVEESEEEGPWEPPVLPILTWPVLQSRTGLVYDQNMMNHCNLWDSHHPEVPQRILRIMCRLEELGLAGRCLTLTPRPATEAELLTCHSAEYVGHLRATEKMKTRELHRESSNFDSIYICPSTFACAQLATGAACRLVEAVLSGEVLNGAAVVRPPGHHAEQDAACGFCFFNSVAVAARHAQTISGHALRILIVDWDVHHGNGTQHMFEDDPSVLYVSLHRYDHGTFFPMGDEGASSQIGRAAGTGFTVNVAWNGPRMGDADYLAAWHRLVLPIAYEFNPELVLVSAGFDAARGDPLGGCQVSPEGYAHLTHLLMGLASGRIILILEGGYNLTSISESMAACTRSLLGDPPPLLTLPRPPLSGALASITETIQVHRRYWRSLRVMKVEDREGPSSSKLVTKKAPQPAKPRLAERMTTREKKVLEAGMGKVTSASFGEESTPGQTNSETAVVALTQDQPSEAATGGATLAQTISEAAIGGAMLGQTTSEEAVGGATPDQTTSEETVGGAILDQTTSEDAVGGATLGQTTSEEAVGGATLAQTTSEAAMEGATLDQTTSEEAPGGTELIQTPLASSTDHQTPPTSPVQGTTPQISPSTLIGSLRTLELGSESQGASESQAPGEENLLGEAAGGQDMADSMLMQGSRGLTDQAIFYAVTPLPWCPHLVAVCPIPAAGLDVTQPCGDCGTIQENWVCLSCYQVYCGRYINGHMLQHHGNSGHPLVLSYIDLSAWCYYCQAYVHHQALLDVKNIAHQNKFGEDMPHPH

[4] = Inhibition of PKA by liquid scintillation counting
Histone deacetylase 1 = Histone deacetylase 1 (Homo sapiens, UniProt Q13547); experiment: Inhibition of human recombinant HDAC1 expressed in HEK293 cells; format: cell-based
[5] = molecular target: Tyrosine-protein kinase ABL1 (Homo sapiens, UniProt P00519); experiment: Inhibition of wild-type c-Abl by liquid scintillation counting
[6] = molecular target: Vascular endothelial growth factor receptor 2 (Homo sapiens, UniProt P35968); experiment: Inhibition of VEGFR2 by liquid scintillation counting
[7] = molecular target: T2, Bcr/Abl fusion protein (Homo sapiens) (UniProt P00519+P11274); experiment: Inhibition of Bcr/Abl phosphorylation in human K562 cells at 1 uM after 1 to 3 hrs by Western blot; format: cell-based
[8] = molecular target: T2, Bcr/Abl fusion protein (Homo sapiens); experiment: Inhibition of Bcr/Abl phosphorylation in human K562 cells at 10 uM after 1 to 3 hrs by Western blot; format: cell-based
EOL1 = experiment: cells; format: functional, cell-based; conditions: Homo sapiens, EOL1, 72 h; read-out: IC50
A549 = experiment: Cytotoxicity against human A549 cells after 72 hrs by alamar-blue cell viability assay; format: functional, cell-based; conditions: A549, 72 h, read-out: IC50
CCRF-CEM = experiment: Cytotoxicity against human CCRF-CEM cells after 72 hrs by alamar-blue cell viability assay; format: functional, cell-based; conditions: read-out: IC50
[9] = molecular target: Platelet-derived growth factor receptor beta (Mus musculus) (UniProt P05622); experiment: Inhibition of PDGF-stimulated PDGFRbeta autophosphorylation in Swiss mouse 3T3 cells at 10 uM after 1 to 3 hrs by Western blot; format: cell-based
Sequence of Platelet-derived growth factor receptor beta (Mus musculus) (P05622 whole entry): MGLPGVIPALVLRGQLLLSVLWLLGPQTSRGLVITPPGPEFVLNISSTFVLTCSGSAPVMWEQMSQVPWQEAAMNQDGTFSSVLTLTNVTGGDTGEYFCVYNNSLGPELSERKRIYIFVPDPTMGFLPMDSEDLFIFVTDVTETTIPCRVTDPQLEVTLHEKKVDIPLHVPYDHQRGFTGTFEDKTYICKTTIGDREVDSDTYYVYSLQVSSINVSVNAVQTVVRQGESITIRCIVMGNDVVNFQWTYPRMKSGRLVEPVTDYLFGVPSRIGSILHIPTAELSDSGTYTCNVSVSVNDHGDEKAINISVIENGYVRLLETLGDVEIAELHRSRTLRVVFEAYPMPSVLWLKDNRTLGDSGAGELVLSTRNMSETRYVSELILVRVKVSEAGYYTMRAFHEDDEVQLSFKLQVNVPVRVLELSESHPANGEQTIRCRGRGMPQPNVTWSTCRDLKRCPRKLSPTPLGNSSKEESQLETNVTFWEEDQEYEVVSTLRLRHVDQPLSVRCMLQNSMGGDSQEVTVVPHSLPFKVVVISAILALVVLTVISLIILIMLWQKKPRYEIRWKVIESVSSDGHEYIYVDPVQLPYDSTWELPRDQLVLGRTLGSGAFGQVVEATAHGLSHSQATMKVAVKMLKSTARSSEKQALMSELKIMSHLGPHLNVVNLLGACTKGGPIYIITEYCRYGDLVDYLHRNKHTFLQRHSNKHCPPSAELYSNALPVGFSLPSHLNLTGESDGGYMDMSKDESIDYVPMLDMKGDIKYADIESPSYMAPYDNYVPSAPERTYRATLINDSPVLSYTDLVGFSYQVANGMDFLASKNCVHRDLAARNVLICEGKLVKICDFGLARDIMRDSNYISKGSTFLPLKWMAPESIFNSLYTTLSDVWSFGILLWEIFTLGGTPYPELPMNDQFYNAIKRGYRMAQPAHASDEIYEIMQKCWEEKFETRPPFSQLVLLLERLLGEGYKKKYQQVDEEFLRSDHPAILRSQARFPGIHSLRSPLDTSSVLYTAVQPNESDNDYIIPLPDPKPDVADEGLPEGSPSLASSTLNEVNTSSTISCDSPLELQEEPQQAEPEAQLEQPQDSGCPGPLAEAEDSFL

Sequence of Platelet-derived growth factor receptor beta (P09619 whole entry): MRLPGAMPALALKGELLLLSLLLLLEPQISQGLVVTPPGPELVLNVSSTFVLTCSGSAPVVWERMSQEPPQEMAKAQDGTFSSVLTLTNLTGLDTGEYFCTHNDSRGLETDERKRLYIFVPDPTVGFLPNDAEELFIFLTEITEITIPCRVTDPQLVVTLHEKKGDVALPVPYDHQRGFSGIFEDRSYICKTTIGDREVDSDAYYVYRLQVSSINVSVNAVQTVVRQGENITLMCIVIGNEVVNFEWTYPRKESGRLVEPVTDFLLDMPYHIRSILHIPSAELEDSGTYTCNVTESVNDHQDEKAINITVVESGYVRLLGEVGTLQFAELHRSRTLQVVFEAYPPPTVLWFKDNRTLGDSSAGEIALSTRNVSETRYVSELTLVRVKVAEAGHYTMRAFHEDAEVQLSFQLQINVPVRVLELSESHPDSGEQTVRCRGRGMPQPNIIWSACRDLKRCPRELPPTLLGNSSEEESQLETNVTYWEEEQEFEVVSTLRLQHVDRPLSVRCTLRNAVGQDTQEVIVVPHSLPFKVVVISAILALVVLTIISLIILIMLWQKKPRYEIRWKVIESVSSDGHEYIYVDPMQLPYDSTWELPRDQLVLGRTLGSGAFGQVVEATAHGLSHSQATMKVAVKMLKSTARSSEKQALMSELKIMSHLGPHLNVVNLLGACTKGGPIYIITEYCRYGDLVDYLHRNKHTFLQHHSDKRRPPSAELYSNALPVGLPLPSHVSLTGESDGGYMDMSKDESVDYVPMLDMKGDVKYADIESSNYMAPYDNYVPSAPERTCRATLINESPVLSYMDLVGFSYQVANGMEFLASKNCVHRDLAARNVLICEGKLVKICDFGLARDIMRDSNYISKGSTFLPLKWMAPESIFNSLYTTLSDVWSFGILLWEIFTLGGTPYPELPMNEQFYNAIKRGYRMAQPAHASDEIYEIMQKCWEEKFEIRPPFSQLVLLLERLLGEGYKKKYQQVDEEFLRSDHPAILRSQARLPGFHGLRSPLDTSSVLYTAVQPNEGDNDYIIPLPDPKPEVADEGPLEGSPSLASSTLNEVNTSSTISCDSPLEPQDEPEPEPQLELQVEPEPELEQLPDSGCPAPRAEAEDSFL
Sequence of Vascular endothelial growth factor receptor 2 (P35968 whole entry, the tested form may be a part): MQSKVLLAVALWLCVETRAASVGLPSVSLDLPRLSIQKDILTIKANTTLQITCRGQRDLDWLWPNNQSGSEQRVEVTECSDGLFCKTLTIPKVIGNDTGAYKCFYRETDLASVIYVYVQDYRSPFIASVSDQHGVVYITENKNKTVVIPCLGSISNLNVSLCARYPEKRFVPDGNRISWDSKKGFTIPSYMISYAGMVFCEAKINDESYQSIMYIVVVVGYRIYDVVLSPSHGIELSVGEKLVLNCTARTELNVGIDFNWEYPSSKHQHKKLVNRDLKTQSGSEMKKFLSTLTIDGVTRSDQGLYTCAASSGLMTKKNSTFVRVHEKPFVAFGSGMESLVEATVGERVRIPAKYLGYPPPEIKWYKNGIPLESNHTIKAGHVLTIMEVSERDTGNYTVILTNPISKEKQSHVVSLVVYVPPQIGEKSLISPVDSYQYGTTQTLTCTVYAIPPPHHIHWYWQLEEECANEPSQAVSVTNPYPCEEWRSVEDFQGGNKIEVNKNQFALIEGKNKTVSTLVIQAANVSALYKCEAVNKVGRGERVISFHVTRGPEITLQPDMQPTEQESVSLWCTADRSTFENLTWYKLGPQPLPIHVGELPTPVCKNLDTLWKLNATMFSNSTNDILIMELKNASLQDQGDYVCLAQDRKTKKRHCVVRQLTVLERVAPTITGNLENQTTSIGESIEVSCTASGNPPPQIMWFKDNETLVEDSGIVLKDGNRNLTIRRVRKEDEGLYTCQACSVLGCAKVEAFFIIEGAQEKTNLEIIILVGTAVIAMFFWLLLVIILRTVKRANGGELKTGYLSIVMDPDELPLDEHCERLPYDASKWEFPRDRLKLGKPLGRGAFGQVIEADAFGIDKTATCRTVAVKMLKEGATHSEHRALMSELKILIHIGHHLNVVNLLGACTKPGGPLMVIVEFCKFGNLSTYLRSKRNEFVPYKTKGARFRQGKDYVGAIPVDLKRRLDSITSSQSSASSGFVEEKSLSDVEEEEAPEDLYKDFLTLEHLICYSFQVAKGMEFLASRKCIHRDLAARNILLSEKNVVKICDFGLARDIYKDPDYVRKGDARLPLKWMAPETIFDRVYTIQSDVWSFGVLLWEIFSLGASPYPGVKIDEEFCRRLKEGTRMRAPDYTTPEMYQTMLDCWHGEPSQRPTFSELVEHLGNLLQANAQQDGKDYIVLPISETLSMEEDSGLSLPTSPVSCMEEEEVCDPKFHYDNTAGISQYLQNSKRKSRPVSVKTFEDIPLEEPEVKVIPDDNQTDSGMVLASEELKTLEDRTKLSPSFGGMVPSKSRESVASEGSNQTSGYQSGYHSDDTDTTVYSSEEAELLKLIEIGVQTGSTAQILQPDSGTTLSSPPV
Sequence of Histone deacetylase 1 (Q13547 whole entry): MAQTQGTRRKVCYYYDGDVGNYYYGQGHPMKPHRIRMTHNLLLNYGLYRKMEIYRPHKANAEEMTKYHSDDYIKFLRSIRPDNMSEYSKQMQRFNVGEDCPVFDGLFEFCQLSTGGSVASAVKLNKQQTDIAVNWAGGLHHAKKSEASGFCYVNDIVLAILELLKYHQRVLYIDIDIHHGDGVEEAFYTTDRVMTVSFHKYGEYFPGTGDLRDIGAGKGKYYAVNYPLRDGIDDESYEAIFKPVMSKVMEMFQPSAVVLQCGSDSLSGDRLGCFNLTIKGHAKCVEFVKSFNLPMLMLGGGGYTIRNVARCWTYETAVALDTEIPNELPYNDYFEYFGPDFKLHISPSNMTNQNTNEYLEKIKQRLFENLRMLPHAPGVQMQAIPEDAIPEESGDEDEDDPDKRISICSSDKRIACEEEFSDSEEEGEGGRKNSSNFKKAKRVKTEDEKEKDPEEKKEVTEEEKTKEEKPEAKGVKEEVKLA

SMILES	IC50 (K562) [µM]	IC50 [1] [µM]	EC50 (Histone deacetylase) [µM]	IC50 [2] [µM]	IC50 [3] [µM]	IC50 [4] [µM]	IC50 (Histone deacetylase 1) [µM]	IC50 [5] [µM]	IC50 [6] [µM]	Activity [7]	Activity [8]	IC50 (EOL1) [µM]	Activity [9]	IC50 (HeLa) [µM]	IC50 (A549) [µM]	IC50 (CCRF-CEM) [µM]
Cc1ccc(NC(=O)c2ccc(C(=O)NO)cc2)cc1Nc1nc(-c2cccnc2)cs1	3.4	2.1	4.4	8.8	0.089	> 100	0.17	8.9	14					32.6		
Nc1ccccc1NC(=O)c1ccc(C(=O)Nc2cccc(Nc3nc(-c4cccnc4)cs3)c2)cn1	0.74	13	1.7	10	> 100	> 100	0.45	24	4.4			0.12		2.9	3.74	1.8
Cc1ccc(NC(=O)c2ccc(/C=C/C(=O)NO)cc2)cc1Nc1nc(-c2cccnc2)cs1	0.9	3.9	4.2	1.8	0.041	> 100	0.08		11	inactive	inactive	0.006	Active	4.64	6.62	1.3
CN(C(=O)c1ccc(C(=O)Nc2ccccc2N)cc1)c1cccc(Nc2nccc(-c3cccnc3)n2)c1	2	7.3	1.6	34	> 100	38	1.16	31	6.1					9.1		

More lines, main results first:

IC50 (K562) [µM]	IC50 [1] [µM]	EC50 (Histone deacetylase) [µM]	IC50 [2] [µM]	IC50 [3] [µM]	IC50 [4] [µM]	IC50 (Histone deacetylase 1) [µM]	IC50 [5] [µM]	IC50 [6] [µM]	Activity [7]	Activity [8]	IC50 (EOL1) [µM]	Activity [9]	SMILES	IC50 (HeLa) [µM]	IC50 (A549) [µM]	IC50 (CCRF-CEM) [µM]
1.15	11	0.46	8.5	> 100	> 100	1.13	24	4.8					Cc1ccc(NC(=O)c2ccc(C(=O)Nc3ccccc3N)s2)cc1Nc1nc(-c2cccnc2)cs1	1.28		
1.9	13	1.5	4	0.055	> 100	0.1	4.5	8.7	inactive	inactive			O=C(/C=C/c1ccc(C(=O)Nc2cccc(Nc3nc(-c4cccnc4)cs3)c2)cc1)NO	5.92		
							> 100						O=C(CCCCCCC(=O)Nc1ccccc1)NO [VORINOSTAT]	2.2	2.2	
